Assay [1] addresses T1, α1B adrenoceptor (Homo sapiens, UniProt P35368).
T1 construct: Eurofins
T1 sequence (P35368 1-520): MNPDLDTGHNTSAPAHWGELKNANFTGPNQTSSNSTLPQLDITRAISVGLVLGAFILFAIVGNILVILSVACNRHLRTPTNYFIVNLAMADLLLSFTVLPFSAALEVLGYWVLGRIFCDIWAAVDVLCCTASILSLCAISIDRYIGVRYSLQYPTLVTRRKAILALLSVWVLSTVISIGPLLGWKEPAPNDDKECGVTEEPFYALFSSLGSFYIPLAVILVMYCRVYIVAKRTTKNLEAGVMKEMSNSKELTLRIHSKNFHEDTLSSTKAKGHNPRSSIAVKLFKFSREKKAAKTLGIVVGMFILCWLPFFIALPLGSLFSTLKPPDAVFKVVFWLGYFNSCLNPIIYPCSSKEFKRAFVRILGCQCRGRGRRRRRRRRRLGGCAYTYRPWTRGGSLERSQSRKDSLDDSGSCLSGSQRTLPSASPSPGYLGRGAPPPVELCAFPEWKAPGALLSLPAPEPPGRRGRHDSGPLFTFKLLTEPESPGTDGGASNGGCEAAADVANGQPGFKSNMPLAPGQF
Put plainly: Radioligand binding assay. The procedure:
(§1) Secondary pharmacology assays were performed at Eurofins using standard experimental techniques against a total of 86 targets across a broad pharmacological space. Assay details along with experimental protocols are described at https://www.eurofinsdiscoveryservices.com. […] Assays measuring substrate turnover or phosphorylation by isolated proteins were used for kinase and enzyme targets, allowing direct determination of the mode of action of the compounds. […] Assays were run in eight points concentration response mode with half log dilutions and IC50, EC50 or Ki (Cheng and Prusoff [1973]) values determined.

The target of another assay is T2, M1 muscarinic receptor (Homo sapiens, UniProt P11229).
T2 construct: Eurofins
Nature of the assay: Radioligand binding assay. The protocol: as §1

For assay [2], the target named is T3, Peroxisome proliferator-activated receptor-γ (Homo sapiens, UniProt P37231).
T3 construct: Eurofins
Put plainly: Radioligand binding assay. The procedure: as §1

A further assay has as its target T4, α1A adrenoceptor (Homo sapiens, UniProt P35348).
T4 construct: Eurofins
Nature of the assay: Radioligand binding assay. The procedure: as §1

A further assay has as its target T5, D1 dopamine receptor (Homo sapiens, UniProt P21728).
T5 construct: Eurofins
Put plainly: Radioligand binding assay. The procedure:
as §1

For assay [3], the target named is T6, A1 adenosine receptor (Homo sapiens, UniProt P30542).
T6 construct: purchased Eurofins
Put plainly: Radioligand binding assay. The protocol:
as §1

In assay [4] the target is T7, CCK1 cholecystokinin receptor (Homo sapiens, UniProt P32238).
T7 construct: Eurofins
Nature of the assay: Radioligand binding assay. The protocol:
as §1

Assay [5] addresses T8, 5-HT7 receptor (Homo sapiens, UniProt P34969).
T8 construct: Eurofins
Nature of the assay: Radioligand binding assay. The procedure: as §1

The target of assay [6] is T9, Noradrenaline Transporter (NET) (Homo sapiens, UniProt P23975).
T9 construct: Eurofins
Nature of the assay: Radioligand binding assay. The protocol: as §1

For a further assay, the target named is T10, δ opioid Receptor (Homo sapiens, UniProt P41143).
T10 construct: Eurofins
Nature of the assay: Radioligand binding assay. The procedure:
as §1

For assay [7], the target named is T11, Dopamine transporter (DAT) (Homo sapiens, UniProt Q01959).
T11 construct: Eurofins
Nature of the assay: Radioligand binding assay. The procedure: as §1

For another assay, the target named is T12, AT1 angiotensin receptor (Homo sapiens, UniProt P30556).
T12 construct: Eurofins
Put plainly: Radioligand binding assay. The protocol:
as §1

Assay [8] deals with T13, M2 muscarinic receptor (Homo sapiens, UniProt P08172).
T13 construct: Eurofins
T13 sequence (P08172 1-466): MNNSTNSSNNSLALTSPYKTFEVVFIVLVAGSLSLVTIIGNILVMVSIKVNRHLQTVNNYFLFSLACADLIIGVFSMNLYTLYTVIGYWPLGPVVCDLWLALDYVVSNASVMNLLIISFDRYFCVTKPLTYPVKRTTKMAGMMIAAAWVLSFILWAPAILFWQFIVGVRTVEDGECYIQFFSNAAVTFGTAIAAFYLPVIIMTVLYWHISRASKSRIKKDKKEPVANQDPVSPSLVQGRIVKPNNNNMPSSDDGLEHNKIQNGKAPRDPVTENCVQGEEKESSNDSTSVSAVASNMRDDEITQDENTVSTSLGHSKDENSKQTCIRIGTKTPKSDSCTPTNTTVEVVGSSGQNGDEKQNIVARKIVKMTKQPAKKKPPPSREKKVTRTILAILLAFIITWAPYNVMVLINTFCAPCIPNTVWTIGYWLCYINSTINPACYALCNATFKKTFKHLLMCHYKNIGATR
Nature of the assay: Radioligand binding assay. The procedure:
as §1

The next assay deals with T14, 5-HT4 receptor (Homo sapiens, UniProt Q13639).
T14 construct: Eurofins
Nature of the assay: Radioligand binding assay. The procedure:
as §1

For assay [9], the target named is T15, Glucocorticoid Receptor NR3C1 (Homo sapiens, UniProt P04150).
T15 construct: Eurofins
Put plainly: Radioligand binding assay. The procedure:
as §1

The target of the next assay is T16, A2A adenosine receptor (Homo sapiens, UniProt P29274).
T16 construct: Eurofins
Nature of the assay: Cell based functional assay. Particulars: mode of action ND. The procedure:
as §1

For assay [10], the target named is T1, α1B adrenoceptor. Put plainly: Cell based functional assay. The procedure:
as §1

In assay [11] the target is T6, A1 adenosine receptor. Put plainly: Cell based functional assay. Particulars: mode of action ND. The protocol: as §1
The target of assay [12] is T8, 5-HT7 receptor. Nature of the assay: Cell based functional assay. The protocol:
as §1

Assay [13] deals with T13, M2 muscarinic receptor. Put plainly: Cell based functional assay. The protocol: as §1
In another assay the target is T17, CB1 cannabinoid receptor (Homo sapiens, UniProt P21554).
T17 construct: purchased Eurofins
Nature of the assay: Cell based functional assay. The following applies: mode of action ND. The procedure: as §1

The mark [14] stands for this setting: Antagonist, read-out: Functional IC50 or EC50.

Data on 1 molecule can be found in paper PMC11272821, “Mechanistic safety assessment via multi-omic characterisation of systemic pathway perturbations following in vivo MAT2A inhibition” (Archives of Toxicology, 2024).

T8 sequence (P34969 whole entry): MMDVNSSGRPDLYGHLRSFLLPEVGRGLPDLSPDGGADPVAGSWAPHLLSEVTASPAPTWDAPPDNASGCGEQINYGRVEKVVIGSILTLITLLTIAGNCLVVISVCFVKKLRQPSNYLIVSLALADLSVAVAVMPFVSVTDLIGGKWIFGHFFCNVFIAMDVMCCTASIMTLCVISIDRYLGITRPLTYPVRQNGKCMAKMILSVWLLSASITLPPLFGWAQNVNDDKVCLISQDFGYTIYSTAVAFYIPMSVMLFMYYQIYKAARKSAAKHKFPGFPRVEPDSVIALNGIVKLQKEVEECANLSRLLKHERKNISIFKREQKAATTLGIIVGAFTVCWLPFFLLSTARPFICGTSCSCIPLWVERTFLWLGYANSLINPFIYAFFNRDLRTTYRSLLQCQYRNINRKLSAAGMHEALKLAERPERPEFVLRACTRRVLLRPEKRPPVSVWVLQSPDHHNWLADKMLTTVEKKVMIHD
T6 sequence (P30542 whole entry): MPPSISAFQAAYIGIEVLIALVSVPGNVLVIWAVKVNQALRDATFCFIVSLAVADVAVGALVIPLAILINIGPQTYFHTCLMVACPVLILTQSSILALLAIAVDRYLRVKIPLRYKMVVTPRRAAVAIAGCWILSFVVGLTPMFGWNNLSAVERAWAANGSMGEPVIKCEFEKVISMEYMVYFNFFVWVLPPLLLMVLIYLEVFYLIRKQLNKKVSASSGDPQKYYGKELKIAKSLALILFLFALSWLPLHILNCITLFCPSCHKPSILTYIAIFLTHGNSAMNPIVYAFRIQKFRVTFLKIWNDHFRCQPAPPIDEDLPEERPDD
T14 sequence (Q13639 whole entry): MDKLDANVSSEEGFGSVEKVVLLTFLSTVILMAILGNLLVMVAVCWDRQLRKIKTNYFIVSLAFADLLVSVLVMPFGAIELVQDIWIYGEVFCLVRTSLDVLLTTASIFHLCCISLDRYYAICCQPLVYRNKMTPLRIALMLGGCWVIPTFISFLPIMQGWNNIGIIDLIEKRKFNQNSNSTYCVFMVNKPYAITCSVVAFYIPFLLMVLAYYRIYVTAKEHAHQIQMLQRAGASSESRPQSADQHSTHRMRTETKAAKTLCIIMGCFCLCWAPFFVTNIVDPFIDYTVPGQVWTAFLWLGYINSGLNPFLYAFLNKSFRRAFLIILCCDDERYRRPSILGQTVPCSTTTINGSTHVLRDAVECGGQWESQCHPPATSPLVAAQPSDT
T11 sequence (Q01959 whole entry): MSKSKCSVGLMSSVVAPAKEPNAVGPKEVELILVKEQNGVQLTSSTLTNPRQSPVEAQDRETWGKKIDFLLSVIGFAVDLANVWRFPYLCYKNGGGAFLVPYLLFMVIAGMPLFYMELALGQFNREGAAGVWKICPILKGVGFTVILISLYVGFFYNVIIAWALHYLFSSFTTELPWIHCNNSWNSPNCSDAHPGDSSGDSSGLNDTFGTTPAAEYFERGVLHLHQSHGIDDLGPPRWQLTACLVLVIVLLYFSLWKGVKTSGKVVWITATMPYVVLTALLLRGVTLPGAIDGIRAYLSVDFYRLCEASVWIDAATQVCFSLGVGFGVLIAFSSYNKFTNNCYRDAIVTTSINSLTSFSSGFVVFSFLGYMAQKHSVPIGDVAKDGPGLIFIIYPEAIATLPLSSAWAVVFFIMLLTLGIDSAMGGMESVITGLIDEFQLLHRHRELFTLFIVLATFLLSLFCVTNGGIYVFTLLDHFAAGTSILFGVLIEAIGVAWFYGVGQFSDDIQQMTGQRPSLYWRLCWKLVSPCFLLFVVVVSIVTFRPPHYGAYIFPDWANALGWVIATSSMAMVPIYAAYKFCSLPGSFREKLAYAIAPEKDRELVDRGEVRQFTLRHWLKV
T5 sequence (P21728 whole entry): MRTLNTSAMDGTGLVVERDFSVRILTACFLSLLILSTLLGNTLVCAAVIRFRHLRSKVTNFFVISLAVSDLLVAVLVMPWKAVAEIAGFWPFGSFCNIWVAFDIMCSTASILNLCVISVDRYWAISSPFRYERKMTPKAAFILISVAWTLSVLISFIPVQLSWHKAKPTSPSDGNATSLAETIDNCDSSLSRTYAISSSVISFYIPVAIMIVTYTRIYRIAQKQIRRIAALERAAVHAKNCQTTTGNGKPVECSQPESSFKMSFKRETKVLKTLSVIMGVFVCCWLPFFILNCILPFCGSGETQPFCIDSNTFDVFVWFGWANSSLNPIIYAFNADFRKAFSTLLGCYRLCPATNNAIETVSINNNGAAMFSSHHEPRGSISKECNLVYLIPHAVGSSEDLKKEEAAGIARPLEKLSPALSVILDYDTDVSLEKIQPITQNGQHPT
T3 sequence (P37231 whole entry): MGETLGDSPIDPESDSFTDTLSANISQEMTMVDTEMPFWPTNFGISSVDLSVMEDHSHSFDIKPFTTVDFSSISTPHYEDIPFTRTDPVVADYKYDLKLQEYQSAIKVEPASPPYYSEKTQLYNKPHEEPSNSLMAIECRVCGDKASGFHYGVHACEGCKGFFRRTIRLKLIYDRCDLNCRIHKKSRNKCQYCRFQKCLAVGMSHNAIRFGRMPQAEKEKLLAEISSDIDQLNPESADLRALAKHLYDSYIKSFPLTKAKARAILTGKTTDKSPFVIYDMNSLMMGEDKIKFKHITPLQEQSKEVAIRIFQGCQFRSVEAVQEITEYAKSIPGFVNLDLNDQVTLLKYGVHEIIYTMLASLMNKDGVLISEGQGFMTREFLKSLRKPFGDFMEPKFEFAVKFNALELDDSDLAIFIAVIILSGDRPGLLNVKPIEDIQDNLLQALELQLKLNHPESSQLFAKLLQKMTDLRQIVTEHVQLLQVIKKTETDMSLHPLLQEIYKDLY
T4 sequence (P35348 whole entry): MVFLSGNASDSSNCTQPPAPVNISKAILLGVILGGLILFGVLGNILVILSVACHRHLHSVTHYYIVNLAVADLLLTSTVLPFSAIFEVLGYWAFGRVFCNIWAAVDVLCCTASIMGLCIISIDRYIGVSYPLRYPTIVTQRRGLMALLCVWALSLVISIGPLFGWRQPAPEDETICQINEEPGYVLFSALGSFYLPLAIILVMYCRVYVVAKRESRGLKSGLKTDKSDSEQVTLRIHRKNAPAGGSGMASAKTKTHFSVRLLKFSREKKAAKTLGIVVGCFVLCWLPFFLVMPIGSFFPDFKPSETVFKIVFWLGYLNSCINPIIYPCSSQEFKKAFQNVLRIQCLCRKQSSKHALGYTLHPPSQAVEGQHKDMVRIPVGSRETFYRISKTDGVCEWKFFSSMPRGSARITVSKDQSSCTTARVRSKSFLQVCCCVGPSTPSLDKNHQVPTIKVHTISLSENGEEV
T12 sequence (P30556 whole entry): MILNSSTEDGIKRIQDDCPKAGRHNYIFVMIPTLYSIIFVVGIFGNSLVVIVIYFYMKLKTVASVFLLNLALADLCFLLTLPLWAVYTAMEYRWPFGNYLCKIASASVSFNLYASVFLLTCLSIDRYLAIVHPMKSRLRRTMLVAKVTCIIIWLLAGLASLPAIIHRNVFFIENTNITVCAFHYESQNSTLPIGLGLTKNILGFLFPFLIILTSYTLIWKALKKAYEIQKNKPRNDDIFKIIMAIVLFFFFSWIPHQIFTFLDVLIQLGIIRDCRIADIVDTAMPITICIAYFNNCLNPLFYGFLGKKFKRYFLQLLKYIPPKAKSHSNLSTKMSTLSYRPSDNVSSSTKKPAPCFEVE
T7 sequence (P32238 whole entry): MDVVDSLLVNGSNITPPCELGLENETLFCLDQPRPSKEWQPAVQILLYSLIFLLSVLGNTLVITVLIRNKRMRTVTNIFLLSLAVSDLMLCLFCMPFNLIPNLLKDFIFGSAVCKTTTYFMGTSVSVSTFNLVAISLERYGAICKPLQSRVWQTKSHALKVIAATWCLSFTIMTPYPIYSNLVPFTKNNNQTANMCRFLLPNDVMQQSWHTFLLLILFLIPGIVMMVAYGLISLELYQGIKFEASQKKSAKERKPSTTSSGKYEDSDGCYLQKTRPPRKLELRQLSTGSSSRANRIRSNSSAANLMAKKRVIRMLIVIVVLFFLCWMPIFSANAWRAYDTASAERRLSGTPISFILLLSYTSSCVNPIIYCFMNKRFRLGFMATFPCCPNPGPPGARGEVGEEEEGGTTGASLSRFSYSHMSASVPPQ
T9 sequence (P23975 whole entry): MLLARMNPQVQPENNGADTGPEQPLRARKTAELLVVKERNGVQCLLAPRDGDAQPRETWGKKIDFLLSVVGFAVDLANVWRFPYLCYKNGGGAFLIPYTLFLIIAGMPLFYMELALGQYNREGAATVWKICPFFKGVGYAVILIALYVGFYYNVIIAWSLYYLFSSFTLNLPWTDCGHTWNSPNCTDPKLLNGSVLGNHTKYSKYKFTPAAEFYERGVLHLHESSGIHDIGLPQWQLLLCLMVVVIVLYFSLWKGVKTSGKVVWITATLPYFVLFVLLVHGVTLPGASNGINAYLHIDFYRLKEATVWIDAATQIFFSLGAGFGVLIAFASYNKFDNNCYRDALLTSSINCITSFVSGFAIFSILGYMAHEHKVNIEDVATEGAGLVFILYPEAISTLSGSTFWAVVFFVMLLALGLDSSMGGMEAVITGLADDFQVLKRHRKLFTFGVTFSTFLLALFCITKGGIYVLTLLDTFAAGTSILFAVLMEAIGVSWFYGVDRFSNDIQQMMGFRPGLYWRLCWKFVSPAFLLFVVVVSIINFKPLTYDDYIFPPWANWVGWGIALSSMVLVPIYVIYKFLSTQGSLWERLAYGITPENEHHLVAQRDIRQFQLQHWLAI

Usually Ki stands for a dissociation constant, usually derived from enzyme kinetics or from competition with a known ligand. High values mean weaker binding, low ones tighter binding. Broadly, the IC50 is the concentration at which inhibition is half-maximal. Regarding `Cn1cc2cc(-c3cc4[nH]nc(C5CC5)c4n(-c4ccc(OC(F)F)cc4)c3=O)ccc2n1` [AZ’9567], the Ki on α1B adrenoceptor [1] was 28.9 µM; on M1 muscarinic receptor it was 69.7 µM; in assay [2] it was 33.3 µM; on α1A adrenoceptor it was 12.7 µM; at D1 dopamine receptor, 35 µM; at A1 adenosine receptor [3], 2.6 µM. Besides, the Ki in assay [4] is 25.3 µM; on 5-HT7 receptor [5], 2.9 µM; in assay [6] it was 33.3 µM; on δ opioid Receptor, 12.8 µM; in assay [7], 22.6 µM; on AT1 angiotensin receptor, 12.7 µM. In addition, the inhibitory constant (Ki) worked out at 1.8 µM on M2 muscarinic receptor [8], 10.3 µM at 5-HT4 receptor and 24.8 µM in assay [9]. The “Functional IC50 or EC50” value on A2A adenosine receptor was more than 100 µM; on A1 adenosine receptor [11] it was more than 30.1 µM; on CB1 cannabinoid receptor, more than 100 µM. In addition, the “Pharmacological mode of action” value at α1B adrenoceptor [10], on 5-HT7 receptor [12] and on M2 muscarinic receptor [13] was “Antagonist” each time. The IC50 on α1B adrenoceptor [10] (setting [14]) was 28.9 µM; at 5-HT7 receptor [12] (setting [14]), 2.9 µM; at M2 muscarinic receptor [13] (setting [14]), 17.1 µM.
